In the oligonucleotide strings, read from the 5' end, every base follows the letter of its sugar. An asterisk marks phosphorothioate; unmarked linkages are phosphodiester. Other units and linkages are bracketed, terminal groups are in braces. A string of capitals states the bases alone. d = 2'-deoxy (DNA)
How the values were obtained:
[1] = system: HSV-2 (strain MS2); experiment: HSV-2 plaque reduction assay (PRA); format: cell-based
Method: The ability of PS-ONs to inhibit HSV-2 is measured by PRA. […] Upon reaching confluency, the media is changed to contain only 5% serum plus supplements as described above and cells are then exposed to HSV-2 (strain MS2, approximately 40-60 PFU total) in the presence of the test compound for 90 minutes. After viral exposure, the media is replaced with new “overlay” media containing 5% serum, 1% human immunoglobulins, supplements as described above and the test compound. Plaque counting is performed 3-4 days post infection following formalin fixation and cresyl violet staining of infected cultures.
(§1) Viral adsorbtion proceeds for 90 minutes, after which cells are washed and replaced with new “overlay” media containing 5% fetal calf serum and 1% human immunoglobins. Three to four days after adsorbtion, cells are fixed by formalin and plaques are counted following formalin fixation and cresyl violet staining.

[2] = system: HSV-1 (strain KOS); experiment: HSV-1 plaque reduction assay (PRA) in VERO cells; format: cell-based; conditions: for IC50: VERO cells, HSV-1 strain KOS, linear regressions, read-out: IC50 (anti-HSV-1)
Method: The ability of PS-ONs to inhibit HSV-1 is measured in a plaque reduction assay (PRA). […] Upon reaching confluency, the media is changed to contain only 5% serum plus supplements as described above and cells are then exposed to HSV-1 (strain KOS, approximately 40-60 PFU total) in the presence of the test compound for 90 minutes. After viral exposure, the media is replaced with new “overlay” media containing 5% serum, 1% human immunoglobulins, supplements as described above and the test compound. Plaque counting is performed 3-4 days post infection following formalin fixation and cresyl violet staining of infected cultures.
as §1
Upon reaching confluency, the media is changed to contain only 5% serum plus supplements as described above and cells are then exposed to HSV-1 (strain KOS, approximately 40-60 PFU total) in the presence of the test compound for 90 minutes. After viral exposure, the media is replaced with new “overlay” media containing 5% serum, 1% human immunoglobulins, supplements as described above and the test compound. Plaque counting is performed 3-4 days post infection following formalin fixation and cresyl violet staining of infected cultures.

[3] = system: HSV-1 (strain MacIntyre) lysate; experiment: Fluorescence polarization binding to HSV-1 lysate; conditions: FITC-labelled ON
[4] = system: HIV-1 (strain Mn) lysate; experiment: Fluorescence polarization binding to HIV-1 lysate; conditions: FITC-labelled ON
[5] = system: RSV (strain A2) lysate; experiment: Fluorescence polarization binding to RSV lysate; conditions: FITC-labelled ON
[6] = target: S1 Nuclease (Aspergillus oryzae, UniProt P24021); conditions: after 4 h at 37° C.
[7] = design: Acid stability, pH 5 / Acid stability, pH 7: key to the marks not given beside the values
[8] = target: Exonuclease I (Escherichia coli, UniProt P04995); design: key to the marks not given beside the values; conditions: after 4 h at 37° C.
[9] = system: Phosphodiesterase II; conditions: after 4 h at 37° C.
[10] = system: Influenza A/HK/68 (H3N2); design: species or system Balb/c mice; conditions: mouse, in vivo, ip, 180 mg/kg

Exonuclease I, sequence (P04995 whole entry): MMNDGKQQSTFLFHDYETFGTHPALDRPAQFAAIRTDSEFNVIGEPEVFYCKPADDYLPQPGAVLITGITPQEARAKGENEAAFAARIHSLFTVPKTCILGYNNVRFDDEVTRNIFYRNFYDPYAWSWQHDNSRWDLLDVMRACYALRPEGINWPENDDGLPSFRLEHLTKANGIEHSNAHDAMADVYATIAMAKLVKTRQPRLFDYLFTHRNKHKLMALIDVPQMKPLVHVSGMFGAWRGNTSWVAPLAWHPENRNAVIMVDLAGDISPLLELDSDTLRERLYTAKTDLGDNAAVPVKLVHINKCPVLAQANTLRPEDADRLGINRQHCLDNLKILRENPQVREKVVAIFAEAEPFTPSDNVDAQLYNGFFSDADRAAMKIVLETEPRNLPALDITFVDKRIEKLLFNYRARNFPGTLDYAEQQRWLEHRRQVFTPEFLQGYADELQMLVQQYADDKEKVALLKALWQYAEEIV
S1 Nuclease, sequence (P24021 21-287): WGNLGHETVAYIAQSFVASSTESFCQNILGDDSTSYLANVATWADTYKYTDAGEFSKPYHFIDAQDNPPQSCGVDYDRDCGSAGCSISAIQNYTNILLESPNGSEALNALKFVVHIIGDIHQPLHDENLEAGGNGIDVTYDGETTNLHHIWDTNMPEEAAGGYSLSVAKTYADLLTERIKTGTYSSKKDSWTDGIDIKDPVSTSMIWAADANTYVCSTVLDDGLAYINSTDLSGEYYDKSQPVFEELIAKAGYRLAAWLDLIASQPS

Row | Compound | anti-HSV-2 activity [1] | IC50 [2] | binding to HSV-1 lysate (fluorescence polarization, mP) [3] | binding to HIV-1 lysate (fluorescence polarization, mP) [4] | binding to RSV lysate (fluorescence polarization, mP) [5] | also measured
1 | REP 1001: PS-ON directed against a replication origin in humans (343 ARS) (DNA dT*dT*dG*dA*dT*dA*dA*dA*dT*dA*dG*dT*dA*dC*dT*dA*dG*dG*dA*dC) | showed anti-HSV-2 activity | 2760 nM |  |  |  | 
2 | T20: 20-mer PS-ON, polyT |  |  | the weakest interactors | the weakest interactors | the weakest interactors | 
3 | REP 2017: random sequence 20-mer PS-ON (DNA dA*dC*dA*dC*dC*dT*dC*dC*dG*dA*dA*dG*dA*dC*dG*dA*dT*dA*dA*dC) |  |  | capable of HSV-1 and HIV-1 interaction | capable of HSV-1 and HIV-1 interaction |  | 
4 | TG10: 20-mer PS-ON, TG repeat |  |  | the strongest interaction | the strongest interaction | the strongest interaction | 
5 | REP 2029: A40 (polyA) PS-ON (DNA dA*dA*dA*dA*dA*dA*dA*dA*dA*dA*dA*dA*dA*dA*dA*dA*dA*dA*dA*dA*dA*dA*dA*dA*dA*dA*dA*dA*dA*dA*dA*dA*dA*dA*dA*dA*dA*dA*dA*dA) |  |  |  |  |  | relative anti-HSV-1 efficacy by sequence composition ([2]; PS-ONs of equivalent size, HSV-1 PRA): the least active; Nuclease resistance, S1 [6]: −; Acid stability, pH 1 ([7]; pH 1, 24 h at 37° C.): −; Acid stability, pH 2 ([7]; pH 2, 24 h at 37° C.): −; Acid stability, pH 2.5 ([7]; pH 2.5, 24 h at 37° C.): −; Acid stability, pH 3 ([7]; pH 3, 24 h at 37° C.): −; Acid stability, pH 4 ([7]; pH 4, 24 h at 37° C.): ++ (++ = less than 5-% degradation); Acid stability, pH 5 ([7]; pH 5, 24 h at 37° C.): +++; Acid stability, pH 7 ([7]; pH 7, 24 h at 37° C.): +++; Nuclease resistance, Exo 1 [8]: ++++; Nuclease resistance, PII [9]: −
6 | NC(=O)c1ncn([C@@H]2O[C@H](CO)[C@@H](O)[C@H]2O)n1 [Ribavirin] |  |  |  |  |  | Viral titer (log10/g lung) Mean [10]: 3.3 log10/g lung
7 | REP 2001: PS-ON directed against the origin of replication in HSV (DNA dG*dA*dA*dG*dC*dG*dT*dT*dC*dG*dC*dA*dC*dT*dT*dC*dG*dT*dC*dC*dC*dA) | showed anti-HSV-2 activity | 770 nM |  |  |  | 
8 | REP 3007: PS-ON directed against a plasmid (pBR322/pUC) replication origin (DNA dC*dT*dT*dG*dC*dG*dG*dT*dA*dT*dT*dC*dG*dG*dA*dA) | showed anti-HSV-2 activity | 5330 nM |  |  |  | 
9 | A20: 20-mer PS-ON, polyA, 3′ FITC labelled in the binding test |  |  | the weakest interactor of these by a significant margin | the weakest interactor of these by a significant margin | the weakest interactor of these by a significant margin | 

— US20060135458A1, “Antiviral oligonucleotides” (priority 2002, published 2006)
